What was measured:
Assay type in all cases: biochemical
ITK = target: T1, ITK (Homo sapiens, UniProt Q08881); experiment: ITK kinase profiling (BTK protocol); conditions: for ITK @ 0.3 μM (% Inh): 0.3 μM compound; for IC50: 10 dose IC50
T1 construct: purchased Reaction Biology Corporation
T1 sequence (Q08881 1-620): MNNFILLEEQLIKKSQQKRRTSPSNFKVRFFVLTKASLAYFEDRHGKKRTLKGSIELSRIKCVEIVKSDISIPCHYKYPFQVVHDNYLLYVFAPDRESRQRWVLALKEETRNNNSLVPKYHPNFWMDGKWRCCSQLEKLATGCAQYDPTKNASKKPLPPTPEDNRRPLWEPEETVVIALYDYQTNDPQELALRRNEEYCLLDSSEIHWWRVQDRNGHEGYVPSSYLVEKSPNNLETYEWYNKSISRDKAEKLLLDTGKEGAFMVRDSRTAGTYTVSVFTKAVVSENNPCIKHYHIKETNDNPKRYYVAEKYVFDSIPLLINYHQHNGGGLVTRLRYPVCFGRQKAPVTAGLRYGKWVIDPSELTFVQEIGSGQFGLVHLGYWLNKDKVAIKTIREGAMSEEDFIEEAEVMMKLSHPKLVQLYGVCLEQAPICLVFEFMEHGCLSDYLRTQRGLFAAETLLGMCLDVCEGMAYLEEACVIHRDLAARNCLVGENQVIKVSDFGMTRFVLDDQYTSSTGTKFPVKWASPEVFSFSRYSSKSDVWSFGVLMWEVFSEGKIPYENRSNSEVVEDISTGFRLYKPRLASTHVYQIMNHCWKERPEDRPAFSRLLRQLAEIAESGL
Description: (§1) BTK assay: In vitro profiling protein kinases was performed using the “HotSpot” assay platform. Briefly, specific kinase/substrate pairs along with required cofactors were prepared in reaction buffer. Compounds were prepared as 10 mM stock solutions in DMSO. Compounds were delivered into the reaction, followed 15-20 minutes later by addition of a mixture of ATP (Sigma, St. Louis Mo.) and ^33P ATP (Perkin Elmer, Waltham Mass.) to a final concentration of 10 μM. […] IC50 values and curve fits were obtained using Prism (GraphPad Software). Buffer Conditions: 20 mM Hepes (pH 7.5), 10 mM MgCl2, 1 mM EGTA, 0.02% Brij35, 0.02 mg/mL BSA, 0.1 mM Na3VO4, 2 mM DTT, 1% DMSO.

PI3Kβ = target: T2, PI3Kβ (Homo sapiens, UniProt P42338); experiment: PI3Kβ isoform profiling (PI3Kδ protocol); conditions: for PI3Kβ @ 0.3 μM (% Inh): 0.3 μM compound; for IC50: 10 dose IC50
T2 construct: purchased Reaction Biology Corporation
T2 sequence (P42338 whole entry, canonical isoform): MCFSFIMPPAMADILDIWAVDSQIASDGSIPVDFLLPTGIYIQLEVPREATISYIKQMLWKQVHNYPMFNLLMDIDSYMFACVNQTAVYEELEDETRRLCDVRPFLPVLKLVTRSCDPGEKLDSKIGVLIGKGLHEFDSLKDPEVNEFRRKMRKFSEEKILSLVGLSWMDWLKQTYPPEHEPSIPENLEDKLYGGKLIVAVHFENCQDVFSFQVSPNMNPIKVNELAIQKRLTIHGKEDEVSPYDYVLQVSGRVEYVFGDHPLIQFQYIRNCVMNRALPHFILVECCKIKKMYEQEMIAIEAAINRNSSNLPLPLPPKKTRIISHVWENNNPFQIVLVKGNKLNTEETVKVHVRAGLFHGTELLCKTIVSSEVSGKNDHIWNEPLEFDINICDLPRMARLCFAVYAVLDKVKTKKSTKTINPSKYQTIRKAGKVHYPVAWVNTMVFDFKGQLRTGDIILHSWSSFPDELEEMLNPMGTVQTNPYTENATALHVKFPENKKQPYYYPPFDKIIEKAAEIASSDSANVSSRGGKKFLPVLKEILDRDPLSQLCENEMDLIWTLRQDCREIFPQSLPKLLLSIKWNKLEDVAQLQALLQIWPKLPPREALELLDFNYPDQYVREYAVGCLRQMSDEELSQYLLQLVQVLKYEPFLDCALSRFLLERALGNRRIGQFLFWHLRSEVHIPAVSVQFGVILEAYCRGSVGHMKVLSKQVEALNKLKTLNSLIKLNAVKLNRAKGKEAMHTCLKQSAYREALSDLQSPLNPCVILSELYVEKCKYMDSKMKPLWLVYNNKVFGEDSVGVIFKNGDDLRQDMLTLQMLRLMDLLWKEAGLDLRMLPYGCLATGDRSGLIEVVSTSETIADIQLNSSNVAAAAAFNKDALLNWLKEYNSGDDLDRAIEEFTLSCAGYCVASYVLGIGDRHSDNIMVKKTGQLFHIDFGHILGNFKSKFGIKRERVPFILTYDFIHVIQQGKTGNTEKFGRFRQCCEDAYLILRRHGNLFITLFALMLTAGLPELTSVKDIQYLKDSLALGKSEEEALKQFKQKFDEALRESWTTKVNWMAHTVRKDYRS
T2 sequence (P27986 whole entry partner, canonical isoform): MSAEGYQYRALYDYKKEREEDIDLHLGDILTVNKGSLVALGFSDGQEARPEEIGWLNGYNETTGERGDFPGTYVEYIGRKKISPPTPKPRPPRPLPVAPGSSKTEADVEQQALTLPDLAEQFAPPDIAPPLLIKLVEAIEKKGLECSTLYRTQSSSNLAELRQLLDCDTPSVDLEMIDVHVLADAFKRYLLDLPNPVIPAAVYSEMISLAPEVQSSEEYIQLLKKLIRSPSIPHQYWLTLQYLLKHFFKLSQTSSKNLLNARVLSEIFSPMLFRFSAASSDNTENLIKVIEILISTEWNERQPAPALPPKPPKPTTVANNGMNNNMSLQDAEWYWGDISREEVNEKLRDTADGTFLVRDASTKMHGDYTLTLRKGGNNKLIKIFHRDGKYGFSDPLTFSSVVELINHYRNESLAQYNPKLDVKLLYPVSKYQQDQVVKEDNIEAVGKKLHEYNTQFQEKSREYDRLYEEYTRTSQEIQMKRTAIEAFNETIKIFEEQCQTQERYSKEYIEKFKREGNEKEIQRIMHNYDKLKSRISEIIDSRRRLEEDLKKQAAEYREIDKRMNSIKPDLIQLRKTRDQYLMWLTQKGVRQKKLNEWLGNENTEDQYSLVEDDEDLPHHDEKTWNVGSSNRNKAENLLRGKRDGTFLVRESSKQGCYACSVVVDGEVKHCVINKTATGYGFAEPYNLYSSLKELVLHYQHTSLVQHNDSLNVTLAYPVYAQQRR
Source text: PI3Kδ assay: The PIP3 product is detected by displacement of biotin-PIP3 from an energy transfer complex consisting of Europium labeled anti-GST monoclonal antibody, a GST-tagged pleckstrin homology (PH) domain, biotinylated PIP3 and Streptavidin-Allophycocyanin (APC). Excitation of Europium in the complex results in an energy transfer to the APC and a fluorescent emission at 665 nm. The PIP3 product formed by PI 3-Kinase(h) activity displaces biotin-PIP3 from the complex resulting in a loss of energy transfer and thus a decrease in signal. This is a 3-step reaction: First, the kinase reaction with PIP2 substrate is carried out in the presence of ATP (10 μM), and the reaction is quenched with stop Solution, and then finally detect by adding Detection Mixture followed by incubation (10 min). Reaction procedure: 1) Prepare substrate in freshly prepared Reaction Buffer. 2) Deliver kinase into the substrate solution and gently mix. 3) Deliver compounds in 100% DMSO (1 μM) into the kinase reaction mixture by Acoustic technology (Echo550; nanoliter range), incubate for 10 min at RT. 4) Deliver ATP into the reaction mixture to initiate the reaction. 5) Incubate for 30 min at 30° C. 6) Quench the reaction with Stop Solution. 7) Add Detection Mixture, and incubate for overnight. 8) Measure HTRF: Ex=320 nm, ratio of Em=615 nm and Em=665 nm. The emission ratio is converted into μM PIP3 production based on PIP3 standard curves. The nonlinear regression to obtain the standard curve and IC50 values are performed using Graphpad Prism software. Assay Buffer: HEPES 50 mM (pH7.0), NaN3 0.02%, BSA 0.01%, Orthovanadate 0.1 mM, 1% DMSO. Detection buffer: HEPES 10 mM (pH7.0), BSA 0.02%, KF 0.16 M, EDTA 4 mM. Substrate: 10 μM PIP2 substrate (PI(4,5)P2).
Compounds of the invention were profiled in a 10 dose IC50 panel against PI3Kα, PI3Kβ, and PI3Kγ kinases, provided by Reaction Biology Corporation, applied to the PI3Kδ protocol provided in Example B1.

BTK = target: T3, BTK (Homo sapiens, UniProt Q06187); experiment: BTK kinase assay (HotSpot, 33P ATP); conditions: for BTK @ 0.1 μM (% Inh): 0.1 μM compound; for BTK @ 0.1 μM (% Inh) / BTK @ 1 μM (% Inh) / BTK @ 0.01 μM (% Inh): 10 μM ATP; for BTK @ 1 μM (% Inh): 1 μM compound; for IC50: 10 dose IC50, 10 μM ATP; for BTK @ 0.01 μM (% Inh): 0.01 μM compound
T3 construct: purchased Reaction Biology Corporation
T3 sequence (Q06187 whole entry): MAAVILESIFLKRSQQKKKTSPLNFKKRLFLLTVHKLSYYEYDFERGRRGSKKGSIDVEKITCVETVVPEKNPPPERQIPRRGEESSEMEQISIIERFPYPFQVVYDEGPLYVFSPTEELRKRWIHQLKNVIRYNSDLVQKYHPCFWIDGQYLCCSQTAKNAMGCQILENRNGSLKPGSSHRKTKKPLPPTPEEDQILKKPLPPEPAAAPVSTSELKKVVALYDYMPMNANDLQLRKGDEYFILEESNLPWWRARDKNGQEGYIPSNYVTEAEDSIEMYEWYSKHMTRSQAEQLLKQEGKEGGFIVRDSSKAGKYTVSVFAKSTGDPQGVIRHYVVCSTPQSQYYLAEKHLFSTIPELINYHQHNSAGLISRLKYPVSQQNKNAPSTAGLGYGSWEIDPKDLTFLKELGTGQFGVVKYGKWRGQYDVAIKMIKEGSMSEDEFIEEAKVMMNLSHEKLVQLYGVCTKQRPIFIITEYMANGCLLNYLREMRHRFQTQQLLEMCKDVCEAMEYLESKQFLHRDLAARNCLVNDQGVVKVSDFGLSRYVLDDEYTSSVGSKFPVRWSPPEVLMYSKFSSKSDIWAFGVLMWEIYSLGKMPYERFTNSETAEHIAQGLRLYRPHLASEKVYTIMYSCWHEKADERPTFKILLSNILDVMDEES
In short: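 In 20 mM Hepes (pH 7.5) with 10 mM MgCl2, 1 mM EGTA, 0.1 mM Na3VO4, 2 mM DTT, 0.02% Brij35, 0.02 mg/mL BSA and 1% DMSO, kinase and substrate were exposed to ten compound doses for 15–20 min.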

TEC = target: T4, TEC (Homo sapiens, UniProt P42680); experiment: TEC kinase profiling (BTK protocol); conditions: for TEC @ 0.3 μM (% Inh): 0.3 μM compound; for IC50: 10 dose IC50
T4 construct: purchased Reaction Biology Corporation
T4 sequence (P42680 1-631): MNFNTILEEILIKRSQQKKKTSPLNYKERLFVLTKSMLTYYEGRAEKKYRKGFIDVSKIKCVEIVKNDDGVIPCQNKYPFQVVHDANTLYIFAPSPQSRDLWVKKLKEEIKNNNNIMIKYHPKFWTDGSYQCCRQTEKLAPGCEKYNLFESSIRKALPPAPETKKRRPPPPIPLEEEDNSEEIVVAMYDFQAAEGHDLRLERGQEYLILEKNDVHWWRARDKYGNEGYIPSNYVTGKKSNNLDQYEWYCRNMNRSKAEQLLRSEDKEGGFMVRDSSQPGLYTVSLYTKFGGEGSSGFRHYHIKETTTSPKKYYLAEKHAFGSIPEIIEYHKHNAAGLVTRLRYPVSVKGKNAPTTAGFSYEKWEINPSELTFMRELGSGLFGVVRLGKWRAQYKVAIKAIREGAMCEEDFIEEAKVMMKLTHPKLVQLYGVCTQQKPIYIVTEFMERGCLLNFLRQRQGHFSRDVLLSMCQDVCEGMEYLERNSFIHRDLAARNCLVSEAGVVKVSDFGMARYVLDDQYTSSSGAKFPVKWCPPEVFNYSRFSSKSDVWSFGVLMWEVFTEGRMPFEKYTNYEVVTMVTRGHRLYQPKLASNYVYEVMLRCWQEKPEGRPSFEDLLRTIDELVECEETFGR
Description: as §1

Row | SMILES | ITK @ 0.3 μM (% Inh) (ITK) | PI3Kβ @ 0.3 μM (% Inh) (PI3Kβ) | BTK @ 0.1 μM (% Inh) (BTK) | BTK @ 1 μM (% Inh) (BTK) | IC50 (BTK) [nM] | TEC @ 0.3 μM (% Inh) (TEC) | BTK @ 0.01 μM (% Inh) (BTK) | IC50 (ITK) [nM] | IC50 (PI3Kβ) [nM] | IC50 (TEC) [nM]
1 | COc1ccc(-c2nn(C3Cc4ccccc4C3)c3ncnc(N)c23)cc1O [Compound No. 68, 5-[4-amino-1-(2,3-dihydro-1H-inden-2-yl)-1H-pyrazolo[3,4-d]pyrimidin-3-yl]-2-methoxyphenol] | −6.84 | 20.68 | 54.54 | 89.54 | 84.3 | 42.69 |  |  |  | 
2 | Nc1ncnc2c1c(-c1cc(F)c3c(c1)NCCO3)nn2C1Cc2ccccc2C1 [Compound No. 84, 1-(2,3-dihydro-1H-inden-2-yl)-3-(8-fluoro-3,4-dihydro-2H-1,4-benzoxazin-6-yl)-1H-pyrazolo[3,4-d]pyrimidin-4-amine] | −2.3 | 27.83 | 51.83 | 90.69 | 104 | 23.9 |  |  |  | 
3 | Nc1ncnc2c1c(-c1ccc(Cl)c(O)c1F)nn2C1Cc2ccccc2C1 [Compound No. 100, 3-[4-amino-1-(2,3-dihydro-1H-inden-2-yl)-1H-pyrazolo[3,4-d]pyrimidin-3-yl]-6-chloro-2-fluorophenol] | 112.3 | 39.8 | 52.22 |  | 78 | 102.76 | 17.5 |  |  | 
4 | Nc1ncnc2c1c(-c1cc(O)cc(F)c1)nn2C1Cc2ccccc2C1 [compound 3, 3-(4-amino-1-(2,3-dihydro-1H-inden-2-yl)-1H-pyrazolo[3,4-d]pyrimidin-3-yl)-5-fluorophenol] |  |  |  |  | 67.3 |  |  | 46900 | 90.8 | 182
5 | Nc1ncnc2c1c(-c1cc(O)cc(F)c1)nn2C1CCc2ccccc2C1 (stereo not drawn) [compound 6, 3-(4-amino-1-(1,2,3,4-tetrahydronaphthalen-2-yl)-1H-pyrazolo[3,4-d]pyrimidin-3-yl)-5-fluorophenol] |  |  |  |  | 86.4 |  |  | 16400 | 105 | 280

Second part, led by results:

Row | ITK @ 0.3 μM (% Inh) (ITK) | PI3Kβ @ 0.3 μM (% Inh) (PI3Kβ) | BTK @ 0.1 μM (% Inh) (BTK) | BTK @ 1 μM (% Inh) (BTK) | IC50 (BTK) [nM] | TEC @ 0.3 μM (% Inh) (TEC) | BTK @ 0.01 μM (% Inh) (BTK) | SMILES | IC50 (ITK) [nM] | IC50 (PI3Kβ) [nM] | IC50 (TEC) [nM]
6 | 3.68 | 50.79 | 92.01 | 98.56 | 4.2 | 88.12 |  | Nc1ncnc2c1c(-c1cc(O)cc(F)c1)cn2C1Cc2ccccc2C1 [Compound No. 63, 3-[4-amino-7-(2,3-dihydro-1H-inden-2-yl)-7H-pyrrolo[2,3-d]pyrimidin-5-yl]-5-fluorophenol] |  |  | 
7 | 2.1 | 73.05 | 73.83 | 94.81 | 26.9 | 71.22 |  | Nc1ncnc2c1c(-c1cc(O)c(F)c(F)c1)nn2C1Cc2ccccc2C1 [Compound No. 81, 5-[4-amino-1-(2,3-dihydro-1H-inden-2-yl)-1H-pyrazolo[3,4-d]pyrimidin-3-yl]-2,3-difluorophenol] |  |  | 
8 | 108.85 | 47.09 | 96.32 |  | 0.8 | 106.37 | 77.86 | Nc1ncnc2c1c(-c1ccc(Cl)c(O)c1)cn2C1Cc2ccccc2C1 [Compound No. 93, 5-[4-amino-7-(2,3-dihydro-1H-inden-2-yl)-7H-pyrrolo[2,3-d]pyrimidin-5-yl]-2-chlorophenol] |  |  | 
9 | −2.77 | 41.93 | 94.7 |  | 2.47 | 91.2 | 78.34 | Nc1ncnc2c1c(-c1cc(O)c(F)c(F)c1)cn2C1Cc2ccccc2C1 [Compound No. 101, 5-[4-amino-7-(2,3-dihydro-1H-inden-2-yl)-7H-pyrrolo[2,3-d]pyrimidin-5-yl]-2,3-difluorophenol] |  |  | 
10 | −5.59 | 67.67 | 0.67 | 9.91 | > 1000 | −3.89 |  | Nc1ncnc2c1c(-c1cc(O)c(F)c(C(F)(F)F)c1)nn2C1Cc2ccccc2C1 [Compound No. 102, 5-[4-amino-1-(2,3-dihydro-1H-inden-2-yl)-1H-pyrazolo[3,4-d]pyrimidin-3-yl]-2-fluoro-3-(trifluoromethyl)phenol] |  |  | 
11 | −5.41 | 49.12 |  |  | 8.7 | 87.72 |  | Nc1ncnc2c1c(-c1cc(O)c(Cl)c(Cl)c1)cn2C1Cc2ccccc2C1 [Compound No. 107, 5-[4-amino-7-(2,3-dihydro-1H-inden-2-yl)-7H-pyrrolo[2,3-d]pyrimidin-5-yl]-2,3-dichlorophenol] |  |  | 

Source: patent publication US20210317140A1, “Heterocyclic Compounds and Methods of Use” (MEDIVATION TECHNOLOGIES, INC, priority 2013, published 2021)
